Assay results as given in patent publication US20090280549A1, “Method for Treating Body Fluid” (priority 2005, published 2009).

What was measured:
Type in all cases: cell-based, human
[1] = tested on: neutrophils; experiment: ATX-S10•Na(II) uptake into neutrophils
Protocol: (§1) After labeling the compound represented by formula (II) above (hereinafter referred to as “ATX-S10•Na(II)”) with ^14C, the ATX-S10•Na(II) was dissolved in saline at a concentration of approximately 1×10^−3 mol/L, and the solution was filtered and sterilized with a 0.22 μm filter and then diluted with 1% FBS (fetal bovine serum)-containing RPMI1640 medium to prepare a 5×10^−5 mol/L ATX-S10•Na(II)-added solution.
(§2) Erythrocytes, platelets, neutrophils and lymphocytes were prepared from blood sampled from three healthy persons (designated as A, B and C).
The erythrocytes, neutrophils and lymphocytes were prepared from heparinized blood. The heparinized blood and 6% dextran-added saline were mixed in a proportion of 3:1 (v:v), and the mixture was allowed to stand at room temperature for 30 minutes. The upper layer leukocyte fraction was centrifuged with a centrifuge tube (900 rpm, 10 minutes, 4° C.), and the precipitate was suspended in saline, superposed onto Ficoll-Hypaque® solution and centrifuged (1600 rpm, 30 minutes, room temperature). The intermediate layer was used as the lymphocyte fraction (containing monocytes) and the precipitate was used as the neutrophil fraction. The neutrophil fraction was suspended in ice-cold 0.2% NaCl solution for hemolysis, and then an equivalent amount of ice-cold 1.6% NaCl solution was immediately added to restore isotonicity. The crude erythrocyte fraction was diluted with KRP (Krebs-Ringer phosphate buffer) and centrifuged (2000 rpm, 5 minutes, 4° C.), and the buffy coat (leukocyte layer) was removed. This procedure was further repeated 4 times to yield the erythrocyte fraction.
(§3) After adding 400 μL of the cell suspension and 100 μL of the ATX-S10•Na(II)-added solution to each well of a 48-well microplate and mixing, the mixtures were incubated with a CO2 incubator (37° C., 5% CO2) or allowed to stand in a refrigerating chamber (approximately 4° C.). The cells were separated immediately after addition (0 hours after addition) and 1 hour, 3 hours, 20 hours and 44 hours after addition, and ATX-S10•Na(II) uptake into the cells (including cell surface binding) was measured. The uptake with standing at 4° C. corresponds to cell surface binding, and the value of the uptake with incubation at 37° C. minus the uptake with standing at 4° C. is presumed to correspond to the substantial ATX-S 10 Na(II) uptake for each type of cell.
The cell separation and uptake measurement were performed in the following manner. Specifically, 1 mL of 1.5% BSA (bovine serum albumin)-containing PBS solution (ice-cold) was placed in a 1.5 mL tube. The suspension of cells to be separated was gently pipetted and mixed, and a 100 μL portion was taken and superposed onto the 1.5% BSA-containing PBS solution. For each well, the cell suspension (300 μL) was dispensed into three tubes (n=3). After centrifugation (3200 rpm, 10 minutes, 4° C.), the medium and 1.5% BSA-containing PBS solution were removed by suction, and then the precipitate was suspended in 100 μL of PBS(−), and 1 mL of PBS(−) was further added and mixed therewith. After additional centrifugation (3000 rpm, 10 minutes, 4° C.), the supernatant was removed by suction, and the bottom of the tube, where the precipitate is present, was cut out and transferred to a counting vial. Then 4.5 mL of liquid scintillator was added and mixed therewith, and the radioactivity was measured for 5 minutes using a liquid scintillation counter. The measured radioactivity was used to calculate the ATX-S10•Na(II) uptake (pmol/10^5 cells) into the cells.
Uptake into neutrophils was measured also with addition of N-formyl-L-methionyl-L-leucyl-L-phenylalanine (hereinafter referred to as “fMLP”) (final concentration: 1×10^−7 mol/L or 1×10^−6 mol/L) or phorbol 12-myristate 13-acetate (hereinafter referred to as “PMA”) (final concentration: 1×10^−7 mol/L) to the cell suspension together with ATX-S10•Na(II).

[2] = tested on: platelets; experiment: ATX-S10•Na(II) uptake into platelets
Protocol: as §1, §2
The platelets were prepared from citric acid-treated blood. […]
as §3, with “The uptake with standing at 4° C. corresponds to cell surface binding, and the value of the uptake with incubation at 37° C. minus the uptake with standing at 4° C. is presumed to correspond to the substantial ATX-S 10 Na(II) uptake for each type of cell.” left out
(§4) The cell separation and uptake measurement were performed in the following manner. […] Then 4.5 mL of liquid scintillator was added and mixed therewith, and the radioactivity was measured for 5 minutes using a liquid scintillation counter. […]

[3] = tested on: lymphocytes; experiment: ATX-S10•Na(II) uptake into lymphocytes
Protocol: as §1, §2
The erythrocytes, neutrophils and lymphocytes were prepared from heparinized blood. […]
as §3, with “The uptake with standing at 4° C. corresponds to cell surface binding, and the value of the uptake with incubation at 37° C. minus the uptake with standing at 4° C. is presumed to correspond to the substantial ATX-S 10 Na(II) uptake for each type of cell.” left out
as §4

With `C=Cc1c(C)c2cc3nc(cc4[nH]c(cc5nc(cc1[nH]2)C(C)=C5CCC(=O)NC(CC(=O)[O-])C(=O)[O-])c(CCC(=O)NC(CC(=O)[O-])C(=O)[O-])c4C)C(C)(O)/C3=C\C=NO.[Na+].[Na+].[Na+].[Na+]` (stereo not drawn) [ATX-S10•Na(II)] the “ATX-S10•Na(II) uptake” value ([1]; Neutrophil (A), donor A, 0 hr, immediately after addition) was 0.21 pmol/10^5 cells, the “ATX-S10•Na(II) uptake” value ([1]; Neutrophil (A), 3 hr, incubation at 37° C.) was 0.38 pmol/10^5 cells and the “ATX-S10•Na(II) uptake” value ([1]; Neutrophil (A), 3 hr, standing at 4° C.) was 0.46 pmol/10^5 cells. For the same compound, the “ATX-S10•Na(II) uptake” value ([1]; Neutrophil (A), 20 hr, incubation at 37° C.) was 4.93 pmol/10^5 cells, the “ATX-S10•Na(II) uptake” value ([1]; Neutrophil (A), 20 hr, standing at 4° C.) was 0.57 pmol/10^5 cells and the “ATX-S10•Na(II) uptake” value ([1]; Neutrophil (B), 3 hr, incubation at 37° C.) was 0.40 pmol/10^5 cells. For the same compound, the “ATX-S10•Na(II) uptake” value ([1]; Neutrophil (B), 3 hr, standing at 4° C.) was 1.27 pmol/10^5 cells, the “ATX-S10•Na(II) uptake” value ([1]; Neutrophil (B), 20 hr, incubation at 37° C.) was 4.04 pmol/10^5 cells and the “ATX-S10•Na(II) uptake” value ([1]; Neutrophil (B), 20 hr, standing at 4° C.) was 0.47 pmol/10^5 cells. The “ATX-S10•Na(II) uptake” value ([1]; Neutrophil (B), 44 hr, incubation at 37° C.) was 16.32 pmol/10^5 cells, the “ATX-S10•Na(II) uptake” value ([1]; Neutrophil (B), 44 hr, standing at 4° C.) was 0.68 pmol/10^5 cells and the “ATX-S10•Na(II) uptake” value ([1]; Neutrophil (C), 3 hr, incubation at 37° C.) was 0.72 pmol/10^5 cells. The “ATX-S10•Na(II) uptake” value ([1]; Neutrophil (C), 3 hr, standing at 4° C.) was 0.36 pmol/10^5 cells, the “ATX-S10•Na(II) uptake” value ([1]; Neutrophil (C), 20 hr, incubation at 37° C.) was 10.13 pmol/10^5 cells and the “ATX-S10•Na(II) uptake” value ([1]; Neutrophil (C), 20 hr, standing at 4° C.) was 0.95 pmol/10^5 cells. The “ATX-S10•Na(II) uptake” value ([1]; Neutrophil stimulated with 1×10^−6 mol/L fMLP, 3 hr, incubation at 37° C.) was 0.75 pmol/10^5 cells, the “ATX-S10•Na(II) uptake” value ([1]; Neutrophil stimulated with 1×10^−6 mol/L fMLP, 3 hr, standing at 4° C.) was 2.02 pmol/10^5 cells and the “ATX-S10•Na(II) uptake” value ([1]; Neutrophil stimulated with 1×10^−6 mol/L fMLP, 20 hr, incubation at 37° C.) was 3.57 pmol/10^5 cells. The “ATX-S10•Na(II) uptake” value ([1]; Neutrophil stimulated with 1×10^−6 mol/L fMLP, 20 hr, standing at 4° C.) was 0.57 pmol/10^5 cells, the “ATX-S10•Na(II) uptake” value ([1]; Neutrophil stimulated with 1×10^−6 mol/L fMLP, 44 hr, incubation at 37° C.) was 14.14 pmol/10^5 cells and the “ATX-S10•Na(II) uptake” value ([1]; Neutrophil stimulated with 1×10^−6 mol/L fMLP, 44 hr, standing at 4° C.) was 3.28 pmol/10^5 cells. For the same compound, the “ATX-S10•Na(II) uptake” value ([1]; Neutrophil stimulated with 1×10^−7 mol/L PMA, 3 hr, incubation at 37° C.) was 4.45 pmol/10^5 cells, the “ATX-S10•Na(II) uptake” value ([1]; Neutrophil stimulated with 1×10^−7 mol/L PMA, 3 hr, standing at 4° C.) was 2.76 pmol/10^5 cells and the “ATX-S10•Na(II) uptake” value ([1]; Neutrophil stimulated with 1×10^−7 mol/L PMA, 20 hr, incubation at 37° C.) was 7.33 pmol/10^5 cells. For the same compound, the “ATX-S10•Na(II) uptake” value ([1]; Neutrophil stimulated with 1×10^−7 mol/L PMA, 20 hr, standing at 4° C.) was 1.09 pmol/10^5 cells, the “ATX-S10•Na(II) uptake” value ([1]; Neutrophil stimulated with 1×10^−7 mol/L fMLP, 3 hr, incubation at 37° C.) was 0.79 pmol/10^5 cells and the “ATX-S10•Na(II) uptake” value ([1]; Neutrophil stimulated with 1×10^−7 mol/L fMLP, 3 hr, standing at 4° C.) was 0.97 pmol/10^5 cells. For the same compound, the “ATX-S10•Na(II) uptake” value ([1]; Neutrophil stimulated with 1×10^−7 mol/L fMLP, 20 hr, incubation at 37° C.) was 2.67 pmol/10^5 cells, the “ATX-S10•Na(II) uptake” value ([1]; Neutrophil stimulated with 1×10^−7 mol/L fMLP, 20 hr, standing at 4° C.) was 0.50 pmol/10^5 cells and the “uptake after stimulation compared with unstimulated cells” value ([1]; neutrophils after stimulation with WILP or PMA) was “no increase in uptake”. The “uptake compared between cell types” value ([1]; neutrophils versus EoL-1, THP-1 and A3/KAW cells) was “higher than EoL-1 cells, although not as high as THP-1 cells or A3/KAW cells”, the “substantial uptake of ATX-S10•Na(II) (uptake at 37° C. minus uptake at 4° C.)” value ([1]; neutrophils, course over incubation time) was “increased with incubation time” and the Aggregation of platelets ([2]; after incubation at 37° C. for 44 hours) was “Aggregation of platelets was observed”. The “ATX-S10•Na(II) uptake” value ([2]; platelets) was “Almost no ATX-S10•Na(II) was taken up”, the “uptake compared between cell types” value ([3]; lymphocytes versus EoL-1, THP-1 and A3/KAW cells) was “higher than EoL-1 cells, although not as high as THP-1 cells or A3/KAW cells” and the “substantial uptake of ATX-S10•Na(II) (uptake at 37° C. minus uptake at 4° C.)” value ([3]; lymphocytes, course over incubation time) was “increased with incubation time”.
